Source: PubChem BioAssay AID720520 (The Scripps Research Institute Molecular Screening Center, 2013)

What was measured:
Experiment in all cases: selectivity of inhibitors across other TLRs – RAW264.7 cells, luminescence, powder samples, selectivity assay for TLR9 inhibitor project, late-stage follow-up (AID 720520); call rule not given here
TLR4 = details: RAW264.7 TLR2/4/7-8 NFkB-luciferase reporter, 6 h, with LPS 0.1 µg/mL
TLR7/8 = details: RAW264.7 TLR2/4/7-8 NFkB-luciferase reporter, 6 h, with R848 1 µg/mL
TLR2 = details: RAW264.7 TLR2/4/7-8 NFkB-luciferase reporter, 6 h, with MALP-2 50 ng/mL

Measured: IC50

O=C1C=CC2(C=C1)O[C@H](Cc1ccccc1)[C@@H](Cc1ccccc1)O2
active: TLR4 226 nM | TLR7/8 245 nM | TLR2 226 nM

COc1ccc(C[C@@H]2OC3(C=CC(=O)C=C3)O[C@H]2Cc2ccc(OC)cc2)cc1
active: TLR4 72 nM | TLR7/8 80 nM | TLR2 58 nM

O=S(=O)(/C=C/C=C/S(=O)(=O)c1ccccc1)c1ccccc1
active: TLR4 126 nM | TLR7/8 93 nM | TLR2 126 nM
